What was measured:
HCT116 = assay: Cell colony formation assay; type: cell-based; conditions: 72 hours with drug, colonies counted after 7 days
Description: This example provides directions for growing cells and testing compounds of the invention for their effect on the growth of the cells. All cells were purchased from DCTDC Tumor Repository, NCI, NIH.
Cell Colony Formation Assay
Four hundred cells (HCT 116, PC-3) or five hundred cells (VM46) were plated in 60 mm Petri dishes containing 2.7 ml of medium (modified McCoy's 5a medium) containing 10% fetal bovine serum and 100 units/ml penicillin and […] streptomycin. The cells were incubated in a CO2 incubator at 37° C. for 5 hours for attachment to the bottom of Petri dishes. Drugs were made fresh in medium at ten times the final concentration, and then 0.3 ml of this stock solution was added to the 2.7 ml of medium in the dish. The cells were then incubated with drugs for 72 hours at 37° C. At the end of the incubation the drug-containing media were decanted, the dishes were rinsed with 4 ml of Hank's Balance Salt Solution (HBSS), 5 ml of fresh medium was added, and the dishes were returned to the incubator for colony formation. The cell colonies were counted using colony counter after incubation for 7 days for HCT116 cells and PC-3 cells and 8 days for VM46 cells, respectively.
Values of ID50 (the drug concentration producing 50% inhibition of colony formation) may be determined for each tested compound. The directions described in this example may be used in other cells, such as DU-145.

[1] = tested on: MTG-B mouse mammary adenocarcinoma; assay: In vivo efficacy in mice bearing MTG-B tumors; set-up: species or system C3H/HeJ mice; conditions: for Surviving days after treatment of MTG-B mouse mammary adenocarcinoma in C3H/Hcj mice: i.p., days from day 0, survival time of control mice generally 6 days; for T/C %: surviving days of treated mice / surviving days of control mice x 100%
Description: This example provides directions for performing in vivo efficacy tests of the compounds of the invention on C3H/HeJ mice bearing MTG-B tumors.
Studies on the compounds of this invention are performed on C3H/HeJ mice bearing MTG-B tumors. The tumors grow exponentially following implantation into the flanks of the mice and reached a diameter of 8 mm (268.08 mm^3) by day 7 to 10. Treatment is initiated at that time, with the first day of treatment designated as day 0 for calculation and plots. The mice are injected i.p. with three drug dose levels (⅓, ½, 1 5 MTD) using both a single injection and the schedule of Q2D 5 3 (every 2 days for a total of 3 treatments at ⅓ MTD). Control groups of mice bearing 8 mm diameter tumors are treated with vehicle alone. After drug treatment, the mice are observed twice a day. When a tumor reaches 1.5 g, the mouse bearing the tumor wis euthanized. Surviving days measured from day 0 for mice treated with anticancer drugs (T) and surviving days measured from day 0 for control mice (C) are recorded. Tumor growth inhibition values (T/C %) are calculated using the formula T/C %=(surviving days of mice treated with an anticancer drug T/surviving days of control mice C) 5 100%.
Tumor sizes may be measured by caliper every day. Daily measurement (mm) of solid tumor (length L and width W) in two dimensions is used to calculate the tumor weight [tumor weight=(length 5 width^2)/2] based on the interchangeable value of 1 mm^3=1 mg. Tumor growth delay (T−C value) is determined by calculation of the median time (in days) required for the treatment group and control group tumors to reach 1,000 mg. Tumor doubling time (Td) is measured, and tumor cell kill is calculated by the formula of log cell kill=(T−C value)/(3.32 5 Td). Regression effects after treatment may be observed and recorded (a complete regression: a regression below limit of palpation; a partial regression: a regression of more than 50% reduction in tumor mass).
Generally, the survival time of the control mice is six (6) days. A ratio of the extra days of survival of mice treated with the compounds of the invention (compared to control) to the extra days of survival of mice treated with taxol (compared to control), can be calculated. For example, if the mice survived 18 days as compared to 9 days for taxol-treated mice, the CD/Taxol ratio would be 18−6/9−6=12/3=4 or 400%.
The following Table II provides a summary of the in vivo toxicity and iv vivo efficacy tests described in Examples 41 and 42 for the compounds tested.

C3H/HeJ mice = assay: In vivo toxicity (MTD / nontoxicity dose), intraperitoneal injection; conditions: highest dose causing no severe irreversible toxicity
Description: This example provides directions for performing in vivo toxicity tests of the compounds of the invention on C3H/HeJ mice.
Acute toxicities of the compounds of this invention are evaluated on C3H/HeJ mice (body weight 18-22 g). The MTD40 (maximum tolerated dose at day 40) values are determined by the standard procedure described by Gad and Chengelis (see, for example, “Acute Toxicology Testing,” 2nd Ed., Shayne O. Gad and Christopher P. Chengelis, pp. 186-195 (Academic Press).) In the consecutive type studies, 2 mice are dosed at low and moderate doses of 40 and 100 mg/kg. If no severe and irreversible toxicity (euthanasia is required) occurs at these doses, a new pair of animals is initiated at 180 mg/kg, which is 1.8 times higher than 100 mg/kg. Sequential dosages (about 3 doses on 3 pairs of animals, i.e. 2 mice for each drug dose) are increased by a factor of 1.8 until severe and irreversible toxicity (euthanasia is required) occurred. Then another pair of animals is initiated at the highest nonlethal dosage, and successive dosages were increased by a factor of 1.15. The result of this exercise is two dosages, one apparently nonlethal and the other lethal if severe and irreversible toxicity occurs and euthanasia is required, separated by a factor of 1.15. Six mice are dosed at each dosage. If no severe and irreversible toxicity occurs at the lower dosage and at least one with severe and irreversible toxicity occurs at the higher dose, then the lower dose is considered to be the MTD. The compounds of this invention are administered to C3H/HeJ mice by intraperitoneal injection (IP). Drug toxicity is evaluated on mice checked daily for 45 days. The toxicity parameters reported will be the MTD40.

Compound | Survival (%) of HCT116 (HCT116; 1 nM) [%] | Survival (%) of HCT116 (HCT116; 10 nM) [%] | Survival (%) of HCT116 (HCT116; 100 nM) [%] | Surviving days after treatment of MTG-B mouse mammary adenocarcinoma in C3H/Hcj mice [1] [days] | T/C % [1] [%] | In Vivo Toxicity Nontoxicity Dose (ip. mg/kg) in C3H/Hej mice (C3H/HeJ mice)
COc1cc2c(c(OC)c1OC)-c1ccc(OC)c(=O)cc1C(NC(C)=O)CC2 (stereo not drawn) [Colchicine] | 100 | 76.1 | 0 | 9 | 150 | 1.6 (0.5) mg/kg
COc1cc2c(c(OC)c1OC)-c1ccc(SC)c(=O)cc1C(NC(=O)COc1ccc(Br)cc1)CC2 (stereo not drawn) [Compound 000815, N-Deacetyl-N-(4-bromophenoxyacetyl)thiocoichicine] | – | 93.8 | 0 | 9 | 150 | 100 (100) mg/kg
COc1ccc(OCC(=O)N[C@H]2CCc3cc(OC)c(OC)c(OC)c3-c3ccc(SC)c(=O)cc32)cc1 [Compound 000825, N-Deacetyl-N-(4-methoxyphenoxyacetyl)thiocolchicine] | 90.25 | 0 | 0 | 18 | – | 50 (30) mg/kg
COc1cc2c(c(OC)c1OC)-c1ccc(SC)c(=O)cc1C(NC(=O)COc1ccc(C=O)cc1)CC2 (stereo not drawn) [Compound 000829, N-Deacetyl-N-(4-formylphenoxyacetyl)thiocolchicine] | 100 | 0 | 0 | 13 | 217 | 150 (120) mg/kg
COc1cc2c(c(OC)c1OC)-c1ccc(SC)c(=O)cc1C(NC(=O)COc1ccccc1[N+](=O)[O-])CC2 (stereo not drawn) [Compound 000830, N-Deacetyl-N-(2-nitrophenoxyacetyl)thiocolchicine] | – | 9.01 | 0 | 8 | 133 | 150 (120) mg/kg
COc1cc2c(c(OC)c1OC)-c1ccc(SC)c(=O)cc1C(NC(=O)c1cccc(NC(=O)CCl)c1)CC2 (stereo not drawn) [Compound 000911, N-Deacetyl-N-(3-chloroacetaminobenzoyl)thiocolchicine] | 100 | 0 | 0 | 11 | 183 | 30 (30) mg/kg

— US6825236B2, “Colchicine derivatives” (California Pacific Medical Center, priority 2003, dated 2004)
